# Assay results reported in US20090143279A1 (priority 2007, published 2009).
# Like-named read-outs stand apart in the source and are kept apart here.
# Tests used:
# OXPHOS gene expression = assay type: cell-based, mouse; settings: for GE-HTS (composite Z-score): normalized score vs mock-treated (DMSO) wells
# [1] = test system: mitochondrial membrane potential; assay type: cell-based, mouse; settings: for ΔΨm (composite Z-score): normalized score vs mock-treated (DMSO) wells
# mtOXPHOS transcripts = assay type: cell-based, mouse; settings: for mitoOX (composite Z-score): normalized score vs mock-treated (DMSO) wells
# reactive oxygen species = assay type: cell-based, mouse; settings: for ROS (composite Z-score): normalized score vs mock-treated (DMSO) wells
# C2C12 myotubes = settings: for Viability (composite Z-score): normalized score vs mock-treated (DMSO) wells
# [2] = test system: cellular dehydrogenase activity; settings: for MTT (composite Z-score): normalized score vs mock-treated (DMSO) wells
# cytochrome c = assay type: cell-based, mouse; settings: for cyt c (composite Z-score): normalized score vs mock-treated (DMSO) wells
# cytochrome c, sequence (P62897 whole entry): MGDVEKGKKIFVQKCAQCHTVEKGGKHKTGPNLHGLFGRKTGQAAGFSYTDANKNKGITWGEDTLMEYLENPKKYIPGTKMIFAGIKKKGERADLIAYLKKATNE
# nuOXPHOS transcripts = assay type: cell-based, mouse; settings: for nucOX (composite Z-score): normalized score vs mock-treated (DMSO) wells
# [3] = composite Z-score vs DMSO wells, Conc 20 μM
# [4] = composite Z-score vs mock-treated (DMSO) wells, Conc 20 μM
# [5] = 20 μM, composite Z-score vs DMSO
# [6] = composite Z-score vs DMSO, Conc 20 μM
# [7] = normalized composite Z-score vs mock-treated (DMSO) wells, Conc 20 μM
# [8] = composite Z-score vs DMSO, Conc 4.42 μM
compound,measurement,setting,value
C=C1C2CC[C@@]3(C)[C@H](c4ccoc4)OC(=O)C[C@]13O[C@H]1C[C@H](OC(C)=O)C(C)(C)[C@H](CC(=O)OC)[C@@]21C,GE-HTS (composite Z-score),OXPHOS gene expression; Conc 20 μM,0.772
same,ΔΨm (composite Z-score),[1]; Conc 20 μM,−0.388
same,mitoOX (composite Z-score),mtOXPHOS transcripts; Conc 20 μM,1.332
same,ROS (composite Z-score),reactive oxygen species; Conc 20 μM,−0.319
same,Viability (composite Z-score),C2C12 myotubes; Conc 20 μM,−0.316
same,MTT (composite Z-score),[2]; Conc 20 μM,−0.881
same,cyt c (composite Z-score),cytochrome c; Conc 20 μM,−0.069
same,nucOX (composite Z-score),nuOXPHOS transcripts; Conc 20 μM,0.446
Oc1c(Cl)cc(Cl)c2cccnc12 [chloroxine],GE-HTS,OXPHOS gene expression; [3],−1.089
same,ΔΨm,[1]; [3],1.120
same,mitoOX,mtOXPHOS transcripts; [3],−2.181
same,ROS,reactive oxygen species; [3],−2.934
same,Viability,C2C12 myotubes; [3],−1.392
same,MTT,[2]; [3],−2.014
same,cyt c,cytochrome c; [3],−0.800
same,nucOX,nuOXPHOS transcripts; [3],−0.461
COc1ccc(/C=C/c2cc(O)cc(O)c2)cc1 [resveratrol 4′-methyl ether],GE-HTS,OXPHOS gene expression; [4],−0.005
same,ΔΨm,[1]; [4],−0.389
same,mitoOX,mtOXPHOS transcripts; [4],0.065
same,ROS,reactive oxygen species; [4],0.225
same,Viability,C2C12 myotubes; [4],−0.225
same,MTT,[2]; [4],−1.056
same,cyt c,cytochrome c; [4],0.142
same,nucOX,nuOXPHOS transcripts; [4],−0.063
CN(C(=O)CN(CCO)CC(=O)N(C)C(C)(C)Cc1ccccc1)C(C)(C)Cc1ccccc1 [oxethazaine],GE-HTS,OXPHOS gene expression,0.473
same,GE-HTS,OXPHOS gene expression; [5],−0.739
same,ΔΨm,[1],−0.742
same,ΔΨm,[1]; [5],0.173
same,mitoOX,mtOXPHOS transcripts,0.609
same,mitoOX,mtOXPHOS transcripts; [5],−0.486
same,ROS,reactive oxygen species,1.092
same,ROS,reactive oxygen species; [5],−0.055
same,Viability,C2C12 myotubes,−0.497
same,Viability,C2C12 myotubes; [5],−0.294
same,MTT,[2],−1.374
same,MTT,[2]; [5],−1.451
same,cyt c,cytochrome c,−0.550
same,cyt c,cytochrome c; [5],−0.278
same,nucOX,nuOXPHOS transcripts,0.335
same,nucOX,nuOXPHOS transcripts; [5],−0.812
CC(=O)O[C@H]1C[C@@H](OC(C)=O)C(C)(C)[C@@H]2C[C@@H](OC(C)=O)[C@@]3(C)C4=CC(=O)O[C@@H](c5ccoc5)[C@]4(C)CC[C@@H]3[C@@]12C [deoxykhivorin],GE-HTS (composite Z-score),OXPHOS gene expression; Conc 20 μM,−1.026
same,ΔΨm (composite Z-score),[1]; Conc 20 μM,0.449
same,mitoOX (composite Z-score),mtOXPHOS transcripts; Conc 20 μM,−1.101
same,ROS (composite Z-score),reactive oxygen species; Conc 20 μM,−0.038
same,Viability (composite Z-score),C2C12 myotubes; Conc 20 μM,0.803
same,MTT (composite Z-score),[2]; Conc 20 μM,−0.494
same,cyt c (composite Z-score),cytochrome c; Conc 20 μM,0.073
same,nucOX (composite Z-score),nuOXPHOS transcripts; Conc 20 μM,−0.917
CC=Cc1ccc2c(c1)OCO2 [isosafrole],GE-HTS,OXPHOS gene expression; [4],−1.283
same,ΔΨm,[1]; [4],−1.060
same,mitoOX,mtOXPHOS transcripts; [4],−1.917
same,ROS,reactive oxygen species; [4],0.397
same,Viability,C2C12 myotubes; [4],−0.798
same,MTT,[2]; [4],−0.913
same,cyt c,cytochrome c; [4],0.462
same,nucOX,nuOXPHOS transcripts; [4],−0.860
C=C1C(=O)O[C@H]2C[C@@H]1C(OC(C)=O)C/C(C)=C/CC/C(C)=C/CC[C@@]2(C)O (some centres unmarked) [crassin acetate],GE-HTS,OXPHOS gene expression; [4],−0.720
same,ΔΨm,[1]; [4],0.374
same,mitoOX,mtOXPHOS transcripts; [4],−0.703
same,ROS,reactive oxygen species; [4],−1.394
same,Viability,C2C12 myotubes; [4],−2.757
same,MTT,[2]; [4],−1.220
same,cyt c,cytochrome c; [4],−1.840
same,nucOX,nuOXPHOS transcripts; [4],−0.685
CC(=O)O[C@@H]1CC2C(C)(C)[C@H](O)C=C[C@]2(C)C2CC[C@]3(C)C(=CC(=O)O[C@H]3c3ccoc3)[C@@]21C (stereo partly drawn) [3-alpha-hydroxydeoxygedinin],GE-HTS (composite Z-score),OXPHOS gene expression; Conc 20 μM,−1.171
same,ΔΨm (composite Z-score),[1]; Conc 20 μM,1.760
same,mitoOX (composite Z-score),mtOXPHOS transcripts; Conc 20 μM,−0.939
same,ROS (composite Z-score),reactive oxygen species; Conc 20 μM,0.531
same,Viability (composite Z-score),C2C12 myotubes; Conc 20 μM,0.156
same,MTT (composite Z-score),[2]; Conc 20 μM,−0.319
same,cyt c (composite Z-score),cytochrome c; Conc 20 μM,−0.321
same,nucOX (composite Z-score),nuOXPHOS transcripts; Conc 20 μM,−1.202
"Oc1cc(O)c2c(c1)O[C@H](c1ccc(O)c(O)c1)[C@H](O)C2 [epicatechin, reference compound]",GE-HTS,OXPHOS gene expression; [6],0.431
same,GE-HTS,OXPHOS gene expression; [7],−0.754
same,ΔΨm,[1]; [6],−2.452
same,ΔΨm,[1]; [7],−1.802
same,mitoOX,mtOXPHOS transcripts; [6],0.641
same,mitoOX,mtOXPHOS transcripts; [7],−0.631
same,ROS,reactive oxygen species; [6],−0.465
same,ROS,reactive oxygen species; [7],−0.199
same,Viability,C2C12 myotubes; [6],−1.380
same,Viability,C2C12 myotubes; [7],0.687
same,MTT,[2]; [6],−1.915
same,MTT,[2]; [7],−1.556
same,cyt c,cytochrome c,0.446
same,cyt c,cytochrome c; [6],0.110
same,cyt c,cytochrome c; [7],0.850
same,nucOX,nuOXPHOS transcripts; [6],0.310
same,nucOX,nuOXPHOS transcripts; [7],−0.773
CC1(C)[C@H]2CC[C@@]1(C)C(=O)C2 [1r-camphor],GE-HTS,OXPHOS gene expression; [5],0.073
same,ΔΨm,[1]; [5],−0.794
same,mitoOX,mtOXPHOS transcripts; [5],0.023
same,ROS,reactive oxygen species; [5],0.042
same,Viability,C2C12 myotubes; [5],−0.744
same,MTT,[2]; [5],−0.402
same,cyt c,cytochrome c; [5],0.372
same,nucOX,nuOXPHOS transcripts; [5],0.107
COc1cc(OC)c2c(OC)c(-c3ccc4c(c3)OCO4)c(=O)oc2c1 [derrusnin],GE-HTS,OXPHOS gene expression; [7],0.039
same,ΔΨm,[1]; [7],0.025
same,mitoOX,mtOXPHOS transcripts; [7],0.417
same,ROS,reactive oxygen species; [7],4.060
same,Viability,C2C12 myotubes; [7],1.067
same,MTT,[2]; [7],−1.630
same,cyt c,cytochrome c; [7],0.511
same,nucOX,nuOXPHOS transcripts; [7],−0.129
"COc1ccc(-c2c(O)c3c(OC)c4c(cc3oc2=O)OC(C)(C)CC4)cc1 [dihydrorobustic acid, reference compound]",GE-HTS,OXPHOS gene expression; [6],−0.836
same,ΔΨm,[1]; [6],0.000
same,mitoOX,mtOXPHOS transcripts; [6],−0.701
same,ROS,reactive oxygen species; [6],−0.115
same,Viability,C2C12 myotubes; [6],−0.721
same,MTT,[2]; [6],−0.780
same,cyt c,cytochrome c; [6],0.757
same,nucOX,nuOXPHOS transcripts; [6],−0.849
CC(=O)OC1CCC2(C)C(CCC3C2CCC2(C)C3CC3OC4(CCC(C)CO4)C(C)C32)C1 (centres unmarked) [neotigogenin acetate],GE-HTS,OXPHOS gene expression; [7],−0.890
same,ΔΨm,[1]; [7],−0.822
same,mitoOX,mtOXPHOS transcripts; [7],−0.693
same,ROS,reactive oxygen species; [7],−0.437
same,Viability,C2C12 myotubes; [7],−0.705
same,MTT,[2]; [7],−1.611
same,cyt c,cytochrome c; [7],−0.049
same,nucOX,nuOXPHOS transcripts; [7],−0.925
polymyxin b sulfate,GE-HTS,OXPHOS gene expression; [5],−0.382
same,ΔΨm,[1]; [5],0.738
same,mitoOX,mtOXPHOS transcripts; [5],−0.341
same,ROS,reactive oxygen species; [5],0.342
same,Viability,C2C12 myotubes; [5],0.819
same,MTT,[2]; [5],−0.522
same,cyt c,cytochrome c; [5],−0.323
same,nucOX,nuOXPHOS transcripts; [5],−0.349
COc1cc(C)c(C(=O)O)c(O)c1 [everninic acid],GE-HTS,OXPHOS gene expression; [7],1.491
same,ΔΨm,[1]; [7],−0.942
same,mitoOX,mtOXPHOS transcripts; [7],1.116
same,ROS,reactive oxygen species; [7],0.423
same,Viability,C2C12 myotubes; [7],−0.592
same,MTT,[2]; [7],−1.123
same,cyt c,cytochrome c; [7],0.115
same,nucOX,nuOXPHOS transcripts; [7],1.517
Cc1c(N)c(=O)n(-c2ccccc2)n1C [4-aminoantipyrine],GE-HTS,OXPHOS gene expression; [8],−0.182
same,ΔΨm,[1]; [8],−4.045
same,mitoOX,mtOXPHOS transcripts; [8],−0.450
same,ROS,reactive oxygen species; [8],0.564
same,Viability,C2C12 myotubes; [8],0.530
same,MTT,[2]; [8],−1.470
same,cyt c,cytochrome c; [8],0.087
same,nucOX,nuOXPHOS transcripts; [8],−0.041
COC(=O)[C@H](O)[C@H]1C(C)(C)[C@H](OC(C)=O)[C@@H]2CC3=C4CC(=O)O[C@@H](c5ccoc5)[C@]4(C)CC[C@@H]3[C@@]1(C)C2=O [swietenolide-3-acetate],GE-HTS,OXPHOS gene expression; [4],−1.057
same,ΔΨm,[1]; [4],1.006
same,mitoOX,mtOXPHOS transcripts; [4],−0.838
same,ROS,reactive oxygen species; [4],0.237
same,Viability,C2C12 myotubes; [4],−0.503
same,MTT,[2]; [4],−0.776
same,cyt c,cytochrome c; [4],0.668
same,nucOX,nuOXPHOS transcripts; [4],−1.093
"Oc1ccc2c(c1)O[C@H](c1ccc(O)c(O)c1)[C@@H](O)C2 [fisetinidol, reference compound]",GE-HTS (composite Z-score),OXPHOS gene expression; Conc 20 μM,−0.998
same,ΔΨm (composite Z-score),[1]; Conc 20 μM,−1.528
same,mitoOX (composite Z-score),mtOXPHOS transcripts; Conc 20 μM,−0.536
same,ROS (composite Z-score),reactive oxygen species; Conc 20 μM,−0.215
same,Viability (composite Z-score),C2C12 myotubes; Conc 20 μM,−1.412
same,MTT (composite Z-score),[2]; Conc 20 μM,−1.804
same,cyt c (composite Z-score),cytochrome c; Conc 20 μM,0.234
same,nucOX (composite Z-score),nuOXPHOS transcripts; Conc 20 μM,−1.107
